Measurements: patent US9567339B2, “Primary carboxamides as BTK inhibitors” (AbbVie Inc., priority 2013, dated 2017)
Like-named read-outs stand apart in the source and are kept apart here.

Target: BTK, recombinant human catalytic domain (aa 393-659) (Homo sapiens (Human), UniProt Q06187)
Experiment: In vitro BTK kinase activity measured by time-resolved fluorescence resonance energy transfer (trFRET)
Assay type: biochemical
[1] = trFRET, 0.001 mM ATP, biotin-TYR1 peptide substrate, read-out: Btk IC50

BTK, recombinant human catalytic domain (aa 393-659), sequence (Q06187 393-659): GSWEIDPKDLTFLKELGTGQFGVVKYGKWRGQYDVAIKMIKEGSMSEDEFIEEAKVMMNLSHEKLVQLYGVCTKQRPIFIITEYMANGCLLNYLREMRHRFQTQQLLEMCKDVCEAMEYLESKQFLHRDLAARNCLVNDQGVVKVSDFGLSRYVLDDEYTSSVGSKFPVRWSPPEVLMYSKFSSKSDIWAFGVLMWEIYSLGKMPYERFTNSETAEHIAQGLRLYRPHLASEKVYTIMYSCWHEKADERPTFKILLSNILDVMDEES

SMILES | IC50 [1] [nM] | IC50 (read-out: Btk IC50) [nM] | also measured
C=CC(=O)Nc1cccc(-c2ccc(C(N)=O)c3[nH]c(-c4ccc(C)nc4)cc23)c1C [A.1.24] | < 100 | – | –
Cc1c(NC(=O)c2ccc(C(F)F)cc2)cccc1-c1ccc(C(N)=O)c2[nH]c(-c3cncnc3)cc12 [A.13.3] | 100 to 1000 | – | –
C=CS(=O)(=O)Nc1cccc(-c2ccc(C(N)=O)c3[nH]ccc23)c1 [I.1, 4-(3-(Vinylsulfonamido)phenyl)-1H-indole-7-carboxamide] | < 100 | – | –
C=CC(=O)N1CCO[C@@H](c2ccc(C(N)=O)c3[nH]c(-c4cnn(C)c4)cc23)C1 [E.9.24] | – | < 100 | –
C=CC(=O)Nc1cc(C#N)cc(-c2ccc(C(N)=O)c3[nH]ccc23)c1 [E.1.26] | – | 100 to 1000 | –
Cc1c(NC(=O)C2=CCCCC2)cccc1-c1ccc(C(N)=O)c2[nH]c(C3=CCN(S(C)(=O)=O)CC3)cc12 [D.7.19] | – | < 100 | –
C=CC(=O)NCc1cccc(-c2ccc(C(N)=O)c3[nH]c(C4=CCN(S(C)(=O)=O)CC4)cc23)c1 [A.4.1] | < 100 | – | –
Cc1c(NC(=O)CC#N)cccc1-c1ccc(C(N)=O)c2[nH]c(C3=CCN(S(C)(=O)=O)CC3)cc12 [D.7.4] | – | < 100 | –
C=CC(=O)N1CC[C@H](c2ccc(C(N)=O)c3[nH]c(C)cc23)C1 [E.9.41*] | – | 100 to 1000 | –
Cc1c(NCc2nccs2)cccc1-c1ccc(C(N)=O)c2[nH]c(C3=CCN(S(C)(=O)=O)CC3)cc12 [H.2.1, 4-(2-methyl-3-(thiazol-2-ylmethylamino)phenyl)-2-(1-(methylsulfonyl)-1,2,3,6-tetrahydropyridin-4-yl)-1H-indole-7-carboxamide] | – | < 100 | –
CC(=O)N1CC=C(c2cc3c(-c4cccc(NC(=O)c5cc6c(s5)CCCC6)c4C)ccc(C(N)=O)c3[nH]2)CC1 [A.3.5] | < 100 | – | –
C=CC(=O)Nc1cc(-c2ccc(C(N)=O)c3[nH]ccc23)ccc1OCc1nccs1 [E.1.13] | – | 100 to 1000 | –
CS(=O)(=O)N1CC=C(c2cc3c(N4CCC[C@@H](N5CCCCC5=O)C4)ccc(C(N)=O)c3[nH]2)CC1 [Example 12, (R)-2-(1-(Methylsulfonyl)-1,2,3,6-tetrahydropyridin-4-yl)-4-(2-oxo-1,3′-bipiperidin-1′-yl)-1H-indole-7-carboxamide] | 100 to 1000 | – | –
C=CC(=O)Nc1cccc(-c2ccc(C(N)=O)c3[nH]c(-c4ccc(OC)nc4)cc23)c1C [A.1.41] | < 100 | – | –
C=CC(=O)Nc1cccc(-c2ccc(C(N)=O)c3[nH]c(-c4ccccc4OC)cc23)c1C [A.1.43] | < 100 | – | –
CNc1cccc(-c2ccc(C(N)=O)c3[nH]ccc23)c1 [A.6.2] | 1000 to 10000 | – | –
C=CC(=O)N1CC(N(C)c2ccc(C(N)=O)c3[nH]c(-c4ccc5c(c4)OCCC5)cc23)C1 [E.9.12] | – | < 100 | –
C=CC(=O)Nc1ccccc1-c1ccc(C(N)=O)c2[nH]c(C3=CCN(S(C)(=O)=O)CC3)cc12 [A.4.3] | < 100 | – | –
C=CC(=O)N1CC(N(C)c2ccc(C(N)=O)c3[nH]c(-c4cnn(C)c4)cc23)C1 [E.9.14] | – | < 100 | –
Cc1c(NC(=O)C(F)(F)Cl)cccc1-c1ccc(C(N)=O)c2[nH]c(C3=CCN(S(C)(=O)=O)CC3)cc12 [D.7.7] | – | < 100 | –
NC(=O)c1ccc(-c2cncnc2)c2cc(-c3ccc(F)cc3)[nH]c12 [A.9.1] | 100 to 1000 | – | –
CC(=O)N1CC=C(c2cc3c(-c4cccc(NC(=O)c5nccs5)c4C)ccc(C(N)=O)c3[nH]2)CC1 [A.3.4] | < 100 | – | –
C=CC(=O)N[C@H]1CC[C@H](c2ccc(C(N)=O)c3[nH]ccc23)C1 (relative stereo) [Example 11, 4-(trans-3-Acrylamidocyclopentyl)-1H-indole-7-carboxamide] | < 100 | – | –
Cc1c(NC(=O)c2nccs2)cccc1-c1ccc(C(N)=O)c2[nH]cc(NC(=O)CCl)c12 [E.5.1] | – | – | IC50: 1000 to 10000 nM
C=CC(=O)Nc1cccc(-c2ccc(C(N)=O)c3[nH]c(-c4ccc(F)cc4)cc23)c1C [A.1.32] | < 100 | – | –
C=CC(=O)N1C[C@@H](CO)C[C@H](c2ccc(C(N)=O)c3[nH]ccc23)C1 [E.9.46] | – | 1000 to 10000 | –

SMILES | IC50 [1] [nM] | IC50 (read-out: Btk IC50) [nM] | also measured
C=CC(=O)Nc1cccc(-c2ccc(C(N)=O)c3[nH]c(-c4cccc(C(=O)N5CCN(C)CC5)c4)cc23)c1C [A.1.31] | < 100 | – | –
C=CC(=O)Nc1ccc(Cl)c(-c2ccc(C(N)=O)c3[nH]ccc23)c1 [E.1.24] | – | < 100 | –
C=C(CN(C)C)C(=O)Nc1cccc(-c2ccc(C(N)=O)c3[nH]ccc23)c1 [D.6.1] | < 100 | – | –
C=CC(=O)Nc1ccc(C(N)=O)c2[nH]ccc12 [Example 5, 4-Acrylamido-1H-indole-7-carboxamide] | 1000 to 10000 | – | –
C=CC(=O)Nc1cc(F)c(F)c(-c2ccc(C(N)=O)c3[nH]ccc23)c1 [E.1.21] | – | < 100 | –
Cc1c(NC(=O)CC(C)C)cccc1-c1ccc(C(N)=O)c2[nH]c(C3=CCN(S(C)(=O)=O)CC3)cc12 [D.7.35] | – | < 100 | –
C=CC(=O)N1CCC[C@H](c2ccc(C(N)=O)c3[nH]c(-c4cnn(C)c4)cc23)C1 [Example 4.2] | – | < 100 | –
C=CC(=O)N1CC[C@@H](c2ccc(C(N)=O)c3[nH]c(-c4cc5n(n4)CCOC5)cc23)C1 [E.9.27] | – | < 100 | –
C=CC(=O)NCc1ccccc1-c1ccc(C(N)=O)c2[nH]c(C3=CCN(S(C)(=O)=O)CC3)cc12 [E.1.1] | – | < 100 | –
CC(C)(C)c1ccc(C(=O)N[C@@H]2CCCN(c3ccc(C(N)=O)c4[nH]ccc34)C2)cc1 [O.1.11*] | – | 1000 to 10000 | –
C=CC(=O)Nc1cccc(-c2ccc(C(N)=O)c3[nH]c(-c4ccc(F)nc4)cc23)c1C [A.1.16] | < 100 | – | –
NC(=O)c1ccc(-c2ccnc(N)c2)c2cc[nH]c12 [A.5.3, 4-(2-aminopyridin-4-yl)-1H-indole-7-carboxamide] | 1000 to 10000 | – | –
Cc1c(NC(=O)COc2cccnc2)cccc1-c1ccc(C(N)=O)c2[nH]c(C3=CCN(S(C)(=O)=O)CC3)cc12 [D.7.14] | – | < 100 | –
C=CC(=O)Nc1ccc(F)c(-c2ccc(C(N)=O)c3[nH]ccc23)c1 [E.1.32] | – | 100 to 1000 | –
Cn1cc(-c2cc3c(N4CCC[C@@H](NC(=O)c5ccc(C(F)(F)F)cc5)C4)ccc(C(N)=O)c3[nH]2)cn1 [O.1.21*] | – | 100 to 1000 | –
C=CC(=O)N1CC(N(C)c2ccc(C(N)=O)c3[nH]c(-c4ccc5c(c4)CCN(CC)C5)cc23)C1 [E.9.17] | – | < 100 | –
N#CCNC(=O)c1cccc(-c2ccc(C(N)=O)c3[nH]ccc23)c1 [Example 15, 4-(3-((Cyanomethyl)carbamoyl)phenyl)-1H-indole-7-carboxamide] | 1000 to 10000 | – | –
CC(=O)C(=O)NCc1cccc(-c2ccc(C(N)=O)c3[nH]ccc23)c1 [E.7.2] | – | 100 to 1000 | –
C=CC(=O)Nc1cccc(-c2ncc(C(N)=O)c3[nH]ccc23)c1C [E.1.9] | – | < 100 | –
Cc1ccc(-c2cc3c(-c4ccn[nH]4)ccc(C(N)=O)c3[nH]2)cc1 [A.8.1] | 100 to 1000 | – | –
Cn1cc(-c2cc3c(N4CCC[C@@H](NC(=O)c5ccc(C6CC6)cc5)C4)ccc(C(N)=O)c3[nH]2)cn1 [O.1.25*] | – | < 100 | –
C=CC(=O)N1C[C@@H]2CN(c3ccc(C(N)=O)c4[nH]ccc34)C[C@@H]21 [E.9.43] | – | 100 to 1000 | –
Cc1cc2c(N(C)C3CN(C#N)C3)ccc(C(N)=O)c2[nH]1 [J.3.1] | – | 100 to 1000 | –
C=CC(=O)Nc1cccc(-c2ccc(C(N)=O)c3[nH]c(C4=CCC(F)(F)CC4)cc23)c1C [E.1, 4-(3-Acrylamido-2-methylphenyl)-2-(4,4-difluorocyclohex-1-en-1-yl)-1H-indole-7-carboxamide] | < 100 | – | –
C=CC(=O)Nc1cccc(-c2ccc(C(N)=O)c3[nH]c(-c4cnn(CCN5CCOCC5)c4)cc23)c1C [A.1.8] | < 100 | – | –
